Measurements published in US9023865B2, “Compounds that are ERK inhibitors” (Merck Sharp & Dohme Corp., priority 2011, dated 2015).

Target: Active Human ERK2 (hERK2) (Homo sapiens (Human), UniProt P28482)
Experiment: Active Human ERK2 (hERK2) Activity Assay (IMAP-FP)
Type: biochemical
Details: phosphorylated active hERK2, 30 μM ATP; average; read-out: ERK 2 Human average IC50
Outline: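 Reaction contains 0.5 nM activated hERK2, 900 nM unlabeled plus 80 nM labeled peptide and 30 μM ATP, run 60 min. Quenched with IMAP binding beads in buffer with 24 mM NaCl; fluorescence polarization read after 60 min binding equilibration.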

Active Human ERK2 (hERK2), sequence (P28482 whole entry): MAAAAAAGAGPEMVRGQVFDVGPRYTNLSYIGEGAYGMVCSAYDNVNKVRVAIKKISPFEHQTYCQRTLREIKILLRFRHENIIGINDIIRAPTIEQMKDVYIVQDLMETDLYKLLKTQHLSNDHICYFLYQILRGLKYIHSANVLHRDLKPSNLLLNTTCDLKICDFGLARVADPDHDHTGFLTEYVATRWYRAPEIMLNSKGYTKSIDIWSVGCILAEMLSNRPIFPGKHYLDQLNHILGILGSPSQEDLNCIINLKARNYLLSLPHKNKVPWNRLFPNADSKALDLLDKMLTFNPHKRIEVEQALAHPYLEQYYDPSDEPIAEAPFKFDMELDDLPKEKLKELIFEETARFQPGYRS

IC50 [nM]	Compound
4.86	Cc1cc(-c2n[nH]c3cc(NC(=O)NCCF)ncc23)ccn1 [Example 199]
25.6	Cc1cc(-c2n[nH]c3cc(NC(=O)NC(C)CO)ncc23)ccn1 (centres unmarked) [Example 200]
92	Cc1cc(-c2n[nH]c3cc(NC(=O)NC4(C#N)CC4)ncc23)ccn1 [Example 201]
11.6	COCC(C)NC(=O)Nc1cc2[nH]nc(-c3ccnc(C)c3)c2cn1 (centres unmarked) [Example 202]
104	Cc1cc(-c2n[nH]c3cc(NC(=O)NC(C)(C)CO)ncc23)ccn1 [Example 203]
24.1	CC[C@H](CO)NC(=O)Nc1cc2[nH]nc(-c3ccnc(C)c3)c2cn1 [Example 204]
15.1	Cc1cc(-c2n[nH]c3cc(NC(=O)N[C@H]4CN(C)C[C@@H]4C)ncc23)ccn1 [Example 205]
3.59	Cc1cc(-c2n[nH]c3cc(NC(=O)N[C@@H]4CN(C)C[C@H]4C)ncc23)ccn1 [Example 206]
0.537	Cc1cc(-c2n[nH]c3cc(NC(=O)N[C@H]4CN(C)C[C@@H]4c4ccccc4C)ncc23)ccn1 [Example 207]
6.73	Cc1cc(-c2n[nH]c3cc(NC(=O)N[C@H]4CN(C)C[C@@H]4C4CCCCC4)ncc23)ccn1 [Example 208]
8.27	Cc1cc(-c2n[nH]c3cc(NC(=O)N[C@H]4CN(C)C[C@@H]4C4CC4)ncc23)ccn1 [Example 209]
96.8	Cc1cc(-c2n[nH]c3cc(NC(=O)N[C@H]4CN(C)C[C@@H]4C4CCOCC4)ncc23)ccn1 [Example 210]
0.731	Cc1cc(-c2n[nH]c3cc(NC(=O)N[C@H]4CN(C)C[C@@H]4c4ccc(F)cc4)ncc23)ccn1 [Example 211]
1.76	Cc1cc(-c2n[nH]c3cc(NC(=O)NCCC4=CCCC4)ncc23)ccn1 [Example 212]
42.1	CN1C[C@H](NC(=O)Nc2cc3[nH]nc(-c4ccc(F)cc4)c3cn2)[C@@H](c2ccccc2)C1 [Example 213]
0.394	CN1C[C@@H](NC(=O)Nc2cc3[nH]nc(-c4ccc(F)cc4)c3cn2)[C@H](c2ccccc2)C1 [Example 214]
0.537	Cc1cc(-c2n[nH]c3cc(NC(=O)N[C@@H]4CN(C)C[C@H]4c4ccccc4C)ncc23)ccn1 [Example 215, 1-((3S,4R)-1-methyl-4-(o-tolyl)pyrrolidin-3-yl)-3-(3-(2-methylpyridin-4-yl)-1H-pyrazolo[4,3-c]pyridin-6-yl)urea]
66.3	Cc1cc(-c2n[nH]c3cc(NC(=O)N[C@H]4CN(C)C[C@@H]4c4ccccc4C)ncc23)ccn1 [Example 216, 1-((3R,4S)-1-methyl-4-(o-tolyl)pyrrolidin-3-yl)-3-(3-(2-methylpyridin-4-yl)-1H-pyrazolo[4,3-e]pyridin-6-yl)urea]
41.6	CC[C@H](NC(=O)Nc1cc2[nH]nc(-c3ccnc(C)c3)c2cn1)c1ccccn1 [Example 217]
0.487	CC[C@@H](NC(=O)Nc1cc2[nH]nc(-c3ccnc(C)c3)c2cn1)c1ccccn1 [Example 218]
1.68	O=C(NCCC1CCOC1)Nc1cc2[nH]nc(-c3ccc(F)cc3)c2cn1 (centres unmarked) [Example 219]
2.46	O=C(NCC1CCOC1)Nc1cc2[nH]nc(-c3ccc(F)cc3)c2cn1 (centres unmarked) [Example 220]
4.49	O=C(NCc1ncco1)Nc1cc2[nH]nc(-c3ccc(F)cc3)c2cn1 [Example 221]
0.995	O=C(NCc1ccno1)Nc1cc2[nH]nc(-c3ccc(F)cc3)c2cn1 [Example 222]

IC50 [nM]	Compound
24.3	CN(C)CCNC(=O)Nc1cc2[nH]nc(-c3ccc(F)cc3)c2cn1 [Example 224]
2.45	Cc1cc(-c2n[nH]c3c(F)c(NC(=O)NC(C)c4ccccn4)ncc23)ccn1 (centres unmarked) [Example 225]
1.58	CN1CCOC(CNC(=O)Nc2cc3[nH]nc(-c4ccc(F)cc4)c3cn2)C1 (centres unmarked) [Example 226]
25.8	CC(CNC(=O)Nc1cc2[nH]nc(-c3ccc(F)cc3)c2cn1)N(C)C (centres unmarked) [Example 227]
70.3	CC(CN(C)C)NC(=O)Nc1cc2[nH]nc(-c3ccc(F)cc3)c2cn1 (centres unmarked) [Example 228]
1.06	Cc1cc(-c2n[nH]c3cc(NC(=O)N[C@H](C)c4cc(Cl)ccn4)ncc23)ccn1 [Example 229]
650	COc1ccnc([C@H](C)NC(=O)Nc2cc3[nH]nc(-c4ccnc(C)c4)c3cn2)c1 [Example 230]
1.53	COc1ccnc([C@@H](C)NC(=O)Nc2cc3[nH]nc(-c4ccnc(C)c4)c3cn2)c1 [Example 231]
0.699	Cc1cc(-c2n[nH]c3cc(NC(=O)N[C@H](C)c4ncccc4F)ncc23)ccn1 [Example 232]
42.5	Cc1cc(-c2n[nH]c3cc(NC(=O)N[C@@H](C)c4ccc(C#N)cc4)ncc23)ccn1 [Example 233]
0.861	Cc1cc(-c2n[nH]c3cc(NC(=O)N[C@H](C)c4ccc(C#N)cc4)ncc23)ccn1 [Example 234]
21.9	Cc1cc(-c2n[nH]c3cc(NC(=O)N[C@@H](C)c4ccncc4)ncc23)ccn1 [Example 235]
1.51	Cc1cc(-c2n[nH]c3cc(NC(=O)N[C@H](C)c4ccncc4)ncc23)ccn1 [Example 236]
0.566	Cc1cc(-c2n[nH]c3cc(NC(=O)NC(c4ccccc4)C4CCCO4)ncc23)ccn1 (centres unmarked) [Example 237]
0.935	Cc1cc(-c2n[nH]c3cc(NC(=O)NC(c4ccc(F)cc4)C4CCCO4)ncc23)ccn1 (centres unmarked) [Example 238]
5.88	Cc1cc(-c2n[nH]c3cc(NC(=O)NC(C)CC4CCCO4)ncc23)ccn1 (centres unmarked) [Example 239]
24.2	COCC(NC(=O)Nc1cc2[nH]nc(-c3ccnc(C)c3)c2cn1)c1ccc(C(F)(F)F)cn1 (centres unmarked) [Example 240]
2.73	CCCNC(=O)Nc1cc2[nH]nc(-c3ccnc(C)c3)c2cn1 [Example 241]
5.54	C[C@@H](NC(=O)Nc1cc2[nH]nc(-c3ccc(-n4ccnn4)cc3)c2cn1)c1ccc(F)cc1 [Example 242, 1-[(1R)-1-(4-fluorophenyl)ethyl]-3-{3-[4-(1H-1,2,3-triazol-1-yl)phenyl]-1H-pyrazolo[4,3-c]pyridin-6-yl}urea]
86.8	Cc1nocc1-c1n[nH]c2cc(NC(=O)N[C@H](C)c3ccc(F)cc3)ncc12 [Example 243]
9.85	C[C@@H](NC(=O)Nc1cc2[nH]nc(-c3ccc(N4CCCCC4)nc3)c2cn1)c1ccc(F)cc1 [Example 244]
0.581	C[C@@H](NC(=O)Nc1cc2[nH]nc(-c3ccc4nncn4c3)c2cn1)c1ccc(F)cc1 [Example 246]
45	C[C@@H](NC(=O)Nc1cc2[nH]nc(-c3ccc(-n4nccn4)cc3)c2cn1)c1ccc(F)cc1 [Example 247]
11.7	Cc1ccc(-c2n[nH]c3cc(NC(=O)N[C@H](C)c4ccc(F)cc4)ncc23)s1 [Example 248]

IC50 [nM]	Compound
2.36	CC(C)Oc1ccc(-c2n[nH]c3cc(NC(=O)N[C@H](C)c4ccc(F)cc4)ncc23)cn1 [Example 250]
5.26	COc1cncc(-c2n[nH]c3cc(NC(=O)N[C@H](C)c4ccc(F)cc4)ncc23)n1 [Example 251]
0.746	COc1ncc(-c2n[nH]c3cc(NC(=O)N[C@H](C)c4ccc(F)cc4)ncc23)cn1 [Example 252]
3.16	COc1cncc(-c2n[nH]c3cc(NC(=O)N[C@H](C)c4ccc(F)cc4)ncc23)c1 [Example 253]
4.59	C[C@@H](NC(=O)Nc1cc2[nH]nc(-c3ccc(C#N)nc3)c2cn1)c1ccc(F)cc1 [Example 254]
0.783	C[C@@H](NC(=O)Nc1cc2[nH]nc(-c3ccc(N4CCOCC4)nc3)c2cn1)c1ccc(F)cc1 [Example 255]
379	COc1cc(-c2n[nH]c3cc(NC(=O)N[C@H](C)c4ccc(F)cc4)ncc23)cc(C(F)(F)F)n1 [Example 257]
1.76	C[C@@H](NC(=O)Nc1cc2[nH]nc(-c3ccnc(C#N)c3)c2cn1)c1ccc(F)cc1 [Example 258]
0.469	C[C@@H](NC(=O)Nc1cc2[nH]nc(-c3cnn(C)c3)c2cn1)c1ccc(F)cc1 [Example 259]
0.309	C[C@@H](NC(=O)Nc1cc2[nH]nc(-c3ccc4nnn(C)c4c3)c2cn1)c1ccc(F)cc1 [Example 260]
1.49	Cc1cc(-c2n[nH]c3cc(NC(=O)N[C@@H]4CCCc5ncccc54)ncc23)ccn1 [Example 261]
1.25	Cc1cc(-c2n[nH]c3cc(NC(=O)N[C@@H]4CCCc5cccnc54)ncc23)ccn1 [Example 262, 1-[3-(2-methylpyridin-4-yl)-1H-pyrazolo[4,3-c]pyridin-6-yl]-3-[(8R)-5,6,7,8-tetrahydroquinolin-8-yl]urea]
1.8	Cc1cc(-c2n[nH]c3cc(NC(=O)N[C@@H]4CCCc5ccncc54)ncc23)ccn1 [Example 263]
2.08	Cc1cc(-c2n[nH]c3cc(NC(=O)N[C@@H]4CCSc5ccccc54)ncc23)ccn1 [Example 264]
1.64	Cc1cc(-c2n[nH]c3cc(NC(=O)N[C@@H]4CCCCc5ccccc54)ncc23)ccn1 [Example 265]
70.6	Cc1cc(-c2n[nH]c3cc(NC(=O)N[C@@H]4CCOc5cc(C#N)ccc54)ncc23)ccn1 [Example 266]
91.6	Cc1cc(-c2n[nH]c3cc(NC(=O)NCC4(c5ccc(OC(F)(F)F)cc5)CC4)ncc23)ccn1 [Example 268]
2.81	Cc1cc(-c2n[nH]c3cc(NC(=O)NCC4(c5ccc(F)cc5)CC4)ncc23)ccn1 [Example 269]
3.73	Cc1cc(-c2n[nH]c3cc(NC(=O)N[C@@H]4CCc5ccc(F)cc54)ncc23)ccn1 [Example 270]
5.93	Cc1cc(-c2n[nH]c3cc(NC(=O)NC4CC(C)(C)Oc5ccccc54)ncc23)ccn1 (centres unmarked) [Example 271]
0.945	Cc1cc(-c2n[nH]c3cc(NC(=O)NCc4ccc(F)cc4)ncc23)ccn1 [Example 273]
0.494	Cc1cc(-c2n[nH]c3cc(NC(=O)NC4CCCOc5ccccc54)ncc23)ccn1 (centres unmarked) [Example 274]
1.61	Cc1cc(-c2n[nH]c3cc(NC(=O)N[C@@H]4CCS(=O)(=O)c5ccccc54)ncc23)ccn1 [Example 275]
